Assay results taken from patent US7183394B1, “Helical nucleopeptides” (priority 2000, dated 2007).

What was measured:
Type in all cases: binding
d(A3AGGAGA3) [1] = assay: Thermal UV denaturation (Tm), antiparallel target d(A3AGGAGA3); conditions: antiparallel N/3′; 5 μM each in TE buffer pH 7, incubated overnight at 4° C.
Procedure: (§1) The N-caps investigated consisted of a series of arenyl and aliphatic carboxylic acids. […] Thermal UV denaturation (Tm) data for the equilibria between N-cap-CTCCT and d(A3GAGGAA3) (SEQ. ID NO.: 5) (N/5′ or parallel orientation) and N-cap-CTCCT and d(A3AGGAGA3) (SEQ. ID NO.: 4) (N/3′ or antiparallel orientation) are collected in Table 2. Thermal UV denaturation curves were obtained with sample solutions made by combining the N-capped (αPNA and ssDNA components (5 μM each) in TE buffer (10 mM Tris-HCl, 1 mM EDTA, pH 7). These solutions were then incubated overnight at 4° C.

d(A3GAGGAA3) = assay: Thermal UV denaturation (Tm), parallel target d(A3GAGGAA3); conditions: for Tm (cooling) / Tm (heating): parallel N/5′, 5 μM each in TE buffer pH 7, incubated overnight at 4° C.
Procedure: as §1

d(TA3G5A3T) = assay: Thermal denaturation (Tm) of complex with d(TA3G5A3T); conditions: for Tm (cooling) / Tm (heating): Table 3, N-4-(cyclohexyl)butyryl cap
Procedure: The α-helical secondary structure (˜26%) of these backbone 1 αPNAs in the absence of DNA was confirmed by circular dichroism (CD) studies in H2O. Both the N-terminal linked (b1) and C-terminal-linked (b1′) cysteine dimers formed complexes with d(A10) in H2O (Table 1, entries 1 and 2). […] The homothymine b1αPNAs required a relatively long incubation period (up to 4 days at 4° C. until constant absorbance was reached) due to the slow kinetics of annealing.
(§2) (Cf. Corey, D. R. J. Am. Chem. Soc. 1995, 117, 9373–9374). […] Even the T5(b2) module hybridized with d(A10) (SEQ ID NO.: 2)—albeit weakly as expected for a complex held together by only A•T base pairs (entry 5). […] This implies that equilibration is being achieved during the cooling cycle. This Tm is 20° C. higher than that of C5(b1)•d(TA3G5A3T) in H2O (compare entries 6 and 7) and 35° C. higher than the corresponding DNA•DNA duplex (in TE-buffer+150 mM NaCl). […] (Marky, L. A.; Breslauer, K. J. Biopolymers 1987, 26, 1601–1620). Added salt was expected to disrupt favorable charge—charge interactions between cationic αPNAs and anionic DNA.
(§3) This reduction in melting temperature presumably arises from residual hydration of the mismatched nucleobases and provides additional support for our proposed Watson-Crick binding model.

d(A3GGAGGA3) [2] = assay: Thermal denaturation (Tm) of complex with d(A3GGAGGA3)
Procedure: as §2, §3

d(A3GGAGGA3) [3] = assay: CD titration (Job plot) with d(A3GGAGGA3); conditions: 258 nm, 5° C., total concentration 12 μM, water
Procedure: Spectra were recorded at 5° C. using a JASCO J-600 CD spectro-polarimeter. Samples having a total concentration ([αPNA]+[DNA]) of 12 μM were made up in doubly deionized water and placed in a stoppered optical quartz cell (1 cm pathlength). Dry air was purged through the sample compartment. Each data point represents the average of eight (baseline corrected) points. […] This is in line with the PAGE experiment with T5(b2)-dimer and d(C3T(TC2)2A10C(TC2)3) (SEQ. ID NO.: 6).

d(A3AGGAGA3) [4] = assay: Thermal UV denaturation (Tm), antiparallel target d(A3AGGAGA3); conditions: Table 1; antiparallel (N/3′) orientation
[5] = Table 3, N-4-(cyclohexyl)butyryl cap

Row | Substance | Tm (heating) (d(A3AGGAGA3) [1]) [°C] | Tm (cooling) (d(A3GAGGAA3)) [°C] | Tm (heating) (d(A3GAGGAA3)) [°C] | also measured
1 | 4-(p-methoxyphenyl)butyryl-CTCCT [p-MeOC6H4(CH2)3CO] | 34.2 | 37.0 | 41.3 | 
2 | Ac-Cys^Acm-Lys-(Ser^C-Ala2-Lys)2-Ser^T-(Ala2-Lys-Ser^C)2-Gly-Lys-NH2 [CCTCC(b2)] |  |  |  | Tm (d(TA3G5A3T); TE-buffer): 38 °C; Tm (d(A3GGAGGA3) [2]; Table 1): 49 °C; Tm (d(A3GAGGAA3); Table 1, parallel (N/5′) orientation): 37 °C; CD intensity minimum (d(A3GGAGGA3) [3]): 50 mol % αPNA; Tm (d(A3AGGAGA3) [4]): 32 °C
3 | 4-cyclohexylbutyryl-CTCCT [C6H11CH2CH2CH2CO] | 33.4 | 43.7 | 47.9 | Tm increase compared to the parent N-acetylated αPNA (d(A3GAGGAA3); parallel, heating, cooling): 11–12 °C
4 | 4-(p-nitrophenyl)butyryl-CTCCT [p-NO2C6H4(CH2)3CO] | 34.4 | 37.8 | 41.6 | 
5 | 4-cyclohexylbutyryl-CCCCC [C6H11(CH2)3CO-CCC CC] |  |  |  | Tm (cooling) (d(TA3G5A3T)): 66 °C; Tm (heating) (d(TA3G5A3T)): 65 °C; Tm (heating) (d(TA3G5A3T); listed as N-4-(cyclohexyl)butyryl-CCCCC): 64.9 °C
6 | n-hexanoyl-CTCCT [CH3CH2CH2CH2CH2CO] | 33.4 | 35.0 | 41.0 | 
7 | 4-(1-pyrenyl)butyryl-CTCCT [1-pyrenyl(CH2)3CO] | 39.0 | 43.8 | 42.6 | 
8 | 3-cyclopentylpropionyl-CTCCT [C5H9CH2CH2CO] | 33.8 | 38.2 | 43.7 | 
9 | n-butyryl-CTCCT [CH3CH2CH2CO] | 30.2 | 36.7 | 40.0 | 
10 | 4-cyclohexylbutyryl-CCTCC [C6H11(CH2)3CO-CCT CC] |  |  |  | Tm (cooling) (d(TA3G5A3T)): 46 °C; Tm (heating) (d(TA3G5A3T)): 50 °C; lowering of Tm (cooling) by a single base-pair mismatch (d(TA3G5A3T); mismatched complex): 10 °C; lowering of Tm (heating) by a single base-pair mismatch (d(TA3G5A3T); mismatched complex): 15 °C; Tm (cooling) (d(A3GGAGGA3) [2]; [5]): 51 °C; Tm (heating) (d(A3GGAGGA3) [2]; [5]): 60 °C; Tm (heating) (d(A3GGAGGA3) [2]; Table 3, N-4-(cyclohexyl)butyryl cap, listed as N-4-(cyclohexyl)butyryl-CCTCC): 60.8 °C
11 | 4-phenylbutyryl-CTCCT [C6H5(CH2)3CO] | 33.6 | 38.5 | 41.8 | 
12 | 4-(2-naphthyl)butyryl-CTCCT [2-naphthyl(CH2)3CO] | 36.3 | 40.0 | 42.7 | 
